Activity calls are given as the source filed them.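 Rule for the calls: active = IC50 at or below 10 µM; inactive = IC50 above 10 µM.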
Target: Nuclear receptor coactivator 1 (Homo sapiens) (UniProt Q15788)
Experiment: SRC1 (NCOA1) coactivator inhibitors, late-stage follow-up, selectivity assay for SRC3 inhibitor project, cell-based, HEK293, GAL4-SRC1 luciferase, powder samples (AID 651786)
Details: HEK293 GAL4-SRC1 luciferase reporter, luminescence

Nuclear receptor coactivator 1 (Homo sapiens), sequence (Q15788 whole entry, looked up, the tested form may be a part): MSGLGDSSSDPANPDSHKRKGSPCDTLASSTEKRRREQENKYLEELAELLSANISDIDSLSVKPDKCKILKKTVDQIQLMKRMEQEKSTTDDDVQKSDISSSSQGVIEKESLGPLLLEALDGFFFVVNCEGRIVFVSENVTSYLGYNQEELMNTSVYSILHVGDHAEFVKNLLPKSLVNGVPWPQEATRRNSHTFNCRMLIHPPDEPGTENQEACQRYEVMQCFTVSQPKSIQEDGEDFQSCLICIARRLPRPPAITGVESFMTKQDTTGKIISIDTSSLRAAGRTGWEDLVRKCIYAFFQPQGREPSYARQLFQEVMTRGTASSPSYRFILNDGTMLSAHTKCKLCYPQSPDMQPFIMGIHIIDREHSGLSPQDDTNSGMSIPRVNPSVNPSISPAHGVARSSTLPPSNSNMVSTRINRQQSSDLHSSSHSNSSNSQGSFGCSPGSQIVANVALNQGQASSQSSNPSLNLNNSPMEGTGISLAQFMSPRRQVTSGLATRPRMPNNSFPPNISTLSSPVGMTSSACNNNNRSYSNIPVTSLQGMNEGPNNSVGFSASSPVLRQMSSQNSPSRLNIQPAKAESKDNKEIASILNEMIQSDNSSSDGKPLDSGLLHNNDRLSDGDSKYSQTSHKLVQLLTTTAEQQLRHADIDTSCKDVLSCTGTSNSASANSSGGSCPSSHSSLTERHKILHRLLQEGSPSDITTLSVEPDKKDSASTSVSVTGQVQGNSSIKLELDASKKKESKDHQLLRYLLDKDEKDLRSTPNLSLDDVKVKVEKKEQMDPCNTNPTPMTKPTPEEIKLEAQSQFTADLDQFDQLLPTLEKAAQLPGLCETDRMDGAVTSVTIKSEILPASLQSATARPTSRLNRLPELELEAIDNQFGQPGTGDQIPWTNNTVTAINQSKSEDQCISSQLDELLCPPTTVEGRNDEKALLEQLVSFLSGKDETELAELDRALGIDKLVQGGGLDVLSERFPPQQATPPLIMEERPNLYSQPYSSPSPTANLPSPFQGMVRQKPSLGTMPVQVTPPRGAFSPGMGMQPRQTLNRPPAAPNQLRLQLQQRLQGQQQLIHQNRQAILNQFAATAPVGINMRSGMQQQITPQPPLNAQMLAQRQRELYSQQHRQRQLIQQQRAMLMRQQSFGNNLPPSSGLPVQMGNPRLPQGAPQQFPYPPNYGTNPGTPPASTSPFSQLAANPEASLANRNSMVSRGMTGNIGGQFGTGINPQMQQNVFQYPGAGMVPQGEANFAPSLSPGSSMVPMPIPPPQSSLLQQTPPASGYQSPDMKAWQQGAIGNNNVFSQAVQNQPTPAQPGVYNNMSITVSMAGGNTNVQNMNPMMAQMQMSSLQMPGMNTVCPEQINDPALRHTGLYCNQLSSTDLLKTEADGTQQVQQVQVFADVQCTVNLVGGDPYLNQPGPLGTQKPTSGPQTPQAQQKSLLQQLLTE

SMILES | IC50
CN1C(=O)C2(C(C#N)=C(N)N(c3cc(Cl)cc(Cl)c3)C3=C2C(=O)CCC3)c2ccccc21 (stereo not drawn) | > 35.9 µM (inactive)
Cc1ccc(OCC(=O)c2cc(C)n(-c3ccccc3)c2C)c([N+](=O)[O-])n1 | inactive
OCCN1CCN(C(=S)c2ccc(-c3ccccc3)cc2)CC1 | 3.01 µM
CN1C(=O)C2(C(C#N)=C(N)N(c3cc(Cl)cc(Cl)c3)C3=C2C(=O)CC(C)(C)C3)c2ccccc21 (stereo not drawn) | > 35.9 µM (inactive)

The remaining lines, values ahead:

IC50 | SMILES
6.87 µM | O=C(Nc1ccccc1Oc1ccccc1)c1cc([N+](=O)[O-])ccc1Cl
> 35.9 µM (inactive) | CC(C)(C)c1ccc(-c2noc(CCC(=O)Nc3cccnc3)n2)cc1
6.16 µM | CCCNC(=O)c1nnsc1S(=O)(=O)c1ccc(Cl)cc1
> 35.9 µM (inactive) | O=C(COC(=O)c1ccc[nH]c1=O)Nc1ccc(N2CCCCC2)cc1

From PubChem BioAssay AID651786 (The Scripps Research Institute Molecular Screening Center, 2012)
